Assay results taken from patent US10689343B2, “Inhibitors of tryptophan 2,3-dioxygenase” (NETHERLANDS TRANSLATIONAL RESEARCH CENTER B.V., priority 2016, dated 2020).

Legend:
CYP3A4 = CYP3A4 (Homo sapiens, UniProt P08684); assay: P450-Glo CYP3A4 luciferin isopropylacetal (Luc-IP) assay
From the text: To determine the inhibitory potency of compounds on CYP3A4 enzyme, the P450-Glo CYP3A4 luciferin isopropylacetal (Luc-IP) assay was used (Promega, Madison, Wis., USA, Cat. No. V9920). The assay makes use of a luminogenic isopropylacetal (IPA) substrate that is a derivative from beetle luciferin, a substrate of luciferase enzymes. The IPA substrate is converted by CYP3A4 to luciferin, which in turn reacts with luciferase to produce an amount of light that is directly proportional to the activity of CYP3A4. Compounds were serially diluted in DMSO and finally in 400 mM K2HPO4, pH 7.4. 5 μl of compound solution and 5 μl of CYP3A4/substrate solution were combined in the well of a white 384-well Optiplate (Perkin Elmer). The DMSO concentration in the assay was 0.1%. After incubation for 10 minutes at room temperature in the dark, 10 μl of NADPH regeneration system was added and incubation was continued for 10 min. Then, 20 μl of Luciferin Detection Reagent was added to stop the reaction, and incubation was continued for another 20 min. Luminescence was measured on an Envision multimode reader and IC50 values were calculated using XLfit™. […] Instead of in a 96-well plate, the assay was performed in 384-well white Perkin Elmer Optiplate (cat. no. 6007290).

Recombinant TDO = target: T1, Recombinant TDO (Homo sapiens, UniProt P48775); assay: Biochemical assay for TDO (NFK GreenScreen); details: 50 nM TDO, 200 μM L-tryptophan
T1 construct: Recombinant TDO (Seegers, N., et al.) and all other assay components were diluted in TDO reaction buffer
Procedure: Biochemical Assay for TDO
The NFK GreenScreen™ assay technology was also used to determine the inhibitory activity of compounds on TDO (Seegers, N., et al., J. Biol. Screen. 19: 1266; 2014). Compounds were serially diluted in DMSO and finally in TDO reaction buffer, consisting of 100 mM NaH2PO4, pH 7.0, supplemented with 0.02% Tween-20 (cat. No. P7949; Sigma Aldrich). Recombinant TDO (Seegers, N., et al.) and all other assay components were diluted in TDO reaction buffer. 10 μl of compound solution and 20 μl of enzyme solution supplemented with 200 μM ascorbic acid were combined in the well of a black 384-well plate (cat. no. 3573; Corning, Corning, N.Y., USA), and incubated for 60 min at room temperature. Subsequently, 10 μl of 0.8 mM of the substrate L-tryptophan was added, i.e., the final concentration of L-tryptophan was 200 μM. The DMSO concentration in the assay was 0.3%. The concentration of TDO was 50 nM. Incubation was continued for 15 min at room temperature. Then, 10 μl of NFK Green™ (NTRC, Oss, The Netherlands) was added, the plate was sealed, and the reaction was developed for 3 hours at 37° C. To determine the production of N-formyl kynurenine (NFK), the seal was removed and fluorescence was read on an EnVision multimode reader (Perkin Elmer, Waltham, Mass., USA). IC50 were calculated using XLfit™ software (ID Business Solutions, Ltd., Surrey, U.K.).

CYP2D6 = CYP2D6 (Homo sapiens, UniProt P10635); assay: P450-Glo CYP2D6 Luc-IP assay
Sequence of CYP2D6 (P10635 whole entry): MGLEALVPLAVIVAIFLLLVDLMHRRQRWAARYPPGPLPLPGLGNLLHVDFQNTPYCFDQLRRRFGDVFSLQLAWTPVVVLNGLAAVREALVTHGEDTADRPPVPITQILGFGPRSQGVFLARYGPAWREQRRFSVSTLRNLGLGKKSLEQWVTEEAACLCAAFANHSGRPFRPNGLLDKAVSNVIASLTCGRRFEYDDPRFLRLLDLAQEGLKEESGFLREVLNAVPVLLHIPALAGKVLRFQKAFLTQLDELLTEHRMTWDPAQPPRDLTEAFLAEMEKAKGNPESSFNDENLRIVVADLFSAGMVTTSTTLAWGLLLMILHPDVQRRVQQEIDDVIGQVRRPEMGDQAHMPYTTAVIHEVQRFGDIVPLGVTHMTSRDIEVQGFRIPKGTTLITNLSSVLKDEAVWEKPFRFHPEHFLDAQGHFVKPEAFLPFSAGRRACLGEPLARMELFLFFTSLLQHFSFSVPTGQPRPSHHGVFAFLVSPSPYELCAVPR

Sequence of CYP3A4 (P08684 whole entry): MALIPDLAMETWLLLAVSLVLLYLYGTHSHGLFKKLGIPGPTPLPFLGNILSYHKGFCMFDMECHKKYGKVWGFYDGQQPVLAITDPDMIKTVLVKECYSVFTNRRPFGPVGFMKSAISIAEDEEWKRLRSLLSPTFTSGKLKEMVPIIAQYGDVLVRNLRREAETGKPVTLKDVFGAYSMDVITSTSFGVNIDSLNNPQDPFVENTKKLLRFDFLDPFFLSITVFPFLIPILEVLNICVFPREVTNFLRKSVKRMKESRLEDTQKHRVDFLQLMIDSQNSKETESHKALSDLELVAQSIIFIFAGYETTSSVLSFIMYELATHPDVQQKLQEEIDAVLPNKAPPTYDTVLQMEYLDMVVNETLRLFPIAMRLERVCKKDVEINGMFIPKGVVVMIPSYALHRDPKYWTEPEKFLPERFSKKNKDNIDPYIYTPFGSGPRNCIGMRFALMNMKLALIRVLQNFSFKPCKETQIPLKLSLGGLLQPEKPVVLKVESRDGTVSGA
T1 sequence (P48775 whole entry): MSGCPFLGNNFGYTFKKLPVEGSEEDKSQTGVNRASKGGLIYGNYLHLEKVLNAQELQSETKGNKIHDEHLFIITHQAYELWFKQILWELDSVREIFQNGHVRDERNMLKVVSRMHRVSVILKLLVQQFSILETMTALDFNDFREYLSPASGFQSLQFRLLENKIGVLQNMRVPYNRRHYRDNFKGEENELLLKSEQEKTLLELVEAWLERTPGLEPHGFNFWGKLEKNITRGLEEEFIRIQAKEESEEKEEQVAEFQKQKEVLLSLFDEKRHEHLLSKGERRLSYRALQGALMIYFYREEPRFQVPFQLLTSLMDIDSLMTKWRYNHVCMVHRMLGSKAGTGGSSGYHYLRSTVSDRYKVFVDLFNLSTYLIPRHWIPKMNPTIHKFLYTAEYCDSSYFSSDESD

Row | Structure (SMILES) | IC50 (CYP3A4) [µM] | IC50 (Recombinant TDO) [µM] | IC50 (CYP2D6) [µM]
1 | NCCNC(=O)c1ccc(-c2c[nH]c3cc(F)ccc23)cc1 [Example 90, N-(2-aminoethyl)-4-(6-fluoro-1H-indol-3-yl)benzamide] | > 10 | < 1 | > 10
2 | CN(C)C(=O)Nc1ccc(-c2c[nH]c3cc(F)ccc23)cc1 [Example 7, 3-[4-(6-Fluoro-1H-indol-3-yl)phenyl]-1,1-dimethyl-urea] | > 10 | 1 to 5 | > 10
3 | Nc1ccn(C(=O)c2ccc(-c3c[nH]c4cc(F)ccc34)cc2)n1 [Example 85, (3-Aminopyrazol-1-yl)-[4-(6-fluoro-1H-indol-3-yl)phenyl]methanone] | > 10 | 1 to 5 | 5 to 10
4 | COC(=O)[C@@H](C)NC(=O)c1ccc(-c2c[nH]c3cc(F)ccc23)cc1 [Example 18, Methyl (2R)-2-[[4-(6-fluoro-1H-indol-3-yl)benzoyl]amino]propanoate] | > 10 | < 1 | > 10
5 | O=C(CC1(O)CCCC1)Nc1ccc(-c2c[nH]c3cc(F)ccc23)cc1 [Example 98, N-[4-(6-fluoro-1H-indol-3-yl)phenyl]-2-(1-hydroxycyclopentyl)acetamide] | > 10 | < 1 | > 10
6 | CN(C)CCCNC(=O)c1ccc(-c2c[nH]c3ccc(F)cc23)cc1 [Example 38, N-[3-(dimethylamino)propyl]-4-(5-fluoro-1H-indol-3-yl)benzamide] | > 10 | < 1 | > 10
7 | Cc1cc(CC(=O)Nc2ccc(-c3c[nH]c4cc(F)ccc34)cc2)no1 [Example 99, N-[4-(6-Fluoro-/H-indol-3-yl)phenyl]-2-(5-methylisoxazol-3-yl)acetamide] | > 10 | 1 to 5 | > 10
8 | C[C@H](NC(=O)c1ccc(-c2c[nH]c3cc(F)ccc23)cc1)C(C)(C)C [Example 88, 4-(6-Fluoro-1H-indol-3-yl)-N-[(1S)-1,2,2-trimethylpropyl]benzamide] | > 10 | 1 to 5 | > 10

Continued, values first:

Row | IC50 (CYP3A4) [µM] | IC50 (Recombinant TDO) [µM] | IC50 (CYP2D6) [µM] | Structure (SMILES)
9 | > 10 | < 1 | > 10 | CCOC(=O)N1CCCC(NC(=O)c2ccc(-c3c[nH]c4cc(F)ccc34)cc2)C1 (centres unmarked) [Example 121, Ethyl 3-[[4-(6-fluoro-1H-indol-3-yl)benzoyl]amino]piperidine-1-carboxylate]
10 | > 10 | 1 to 5 | > 10 | CCNC(=O)Nc1ccc(-c2c[nH]c3cc(F)ccc23)cc1 [Example 6, 1-Ethyl-3-[4-(6-fluoro-1H-indol-3-yl)phenyl]urea]
11 | > 10 | 1 to 5 | > 10 | O=C(CCc1ccccc1)Nc1ccc(-c2c[nH]c3cc(F)ccc23)cc1 [Example 96, N-[4-(6-fluoro-1H-indol-3-yl)phenyl]-3-phenyl-propanamide]
12 | 5 to 10 | 1 to 5 | 5 to 10 | Cc1cc(C(=O)N[C@H](C)CO)ccc1-c1c[nH]c2cc(F)ccc12 [Example 128, 4-(6-Fluoro-1H-indol-3-yl)-N-[(1R)-2-hydroxy-1-methyl-ethyl]-3-methyl-benzamide]
13 | > 10 | < 1 | > 10 | O=C(NCC(F)(F)F)c1ccc(-c2c[nH]c3ccc(F)cc23)cc1 [Example 39, 4-(5-Fluoro-1H-indol-3-yl)-N-(2,2,2-trifluoroethyl)benzamide]
14 | > 10 | 1 to 5 | > 10 | CN1CC(C(=O)Nc2ccc(-c3c[nH]c4cc(F)ccc34)cc2)CCC1=O (centres unmarked) [Example 108, N-[4-(6-fluoro-1H-indol-3-yl)phenyl]-1-methyl-6-oxo-piperidine-3-carboxamide]
15 | > 10 |  | > 10 | O=C(Nc1ccc(-c2c[nH]c3cc(F)ccc23)cc1)C1CCC1(F)F (centres unmarked) [Example 101, 2,2-Difluoro-N-[4-(6-fluoro-1H-indol-3-yl)phenyl]cyclobutanecarboxamide]
